Data from ChEMBL document CHEMBL1201861, “Genomics of Drug Sensitity in Cancer screening data, Wellcome Trust Sanger Institute”.
Values joined by “and” are separate entries in the source; they are usually repeats but may differ in a detail not shown here. Identical values can stand only once. Where a SMILES comes first, the peptide text is derived from it. The star is where a group is joined. Cbz = O=C(OCc1ccccc1)*

Tests used:
[1] = tested on: NCI-H2196; assay: cells; format: functional, cell-based, Homo sapiens;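 note: cell viability assay used as the readout of growth inhibition in NCI-H2196 cells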
Description: SANGER: Inhibition of human NCI-H2196 cell growth in a cell viability assay.

[2] = tested on: SU-DHL-1; assay: SANGER: Inhibition of human SU-DHL-1 cell growth in a cell viability assay.; format: functional, cell-based
[3] = tested on: EVSA-T; assay: cells; format: functional, cell-based, Homo sapiens;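 note: growth inhibition of EVSA-T cells, read out with a cell viability assay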
Description: SANGER: Inhibition of human EVSA-T cell growth in a cell viability assay.

[4] = tested on: LC-1F; assay: cells; format: functional, cell-based, Homo sapiens;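 note: growth inhibition of human LC-1F cells, read out with a cell viability assay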
Description: SANGER: Inhibition of human LC-1F cell growth in a cell viability assay.

[5] = tested on: CA46; assay: cells; format: functional, cell-based, Homo sapiens;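 note: growth inhibition of human CA46 cells, read out by a cell viability assay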
Description: SANGER: Inhibition of human CA46 cell growth in a cell viability assay.

[6] = tested on: NCI-H345; assay: cells; format: functional, cell-based, Homo sapiens;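 note: growth inhibition of NCI-H345 cells measured with a cell viability assay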
Description: SANGER: Inhibition of human NCI-H345 cell growth in a cell viability assay.

[7] = tested on: REH; assay: cells; format: functional, cell-based, Homo sapiens;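 note: growth inhibition of REH cells determined with a cell viability read-out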
Description: SANGER: Inhibition of human REH cell growth in a cell viability assay.

[8] = tested on: ARH-77; assay: cells; format: functional, cell-based, Homo sapiens;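 note: growth inhibition of ARH-77 cells, read out by a cell viability assay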
Description: SANGER: Inhibition of human ARH-77 cell growth in a cell viability assay.

[9] = tested on: SUP-T1; assay: cells; format: functional, cell-based, Homo sapiens;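 note: growth inhibition of human SUP-T1 cells, read out as cell viability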
Description: SANGER: Inhibition of human SUP-T1 cell growth in a cell viability assay.

[10] = tested on: D-336MG; assay: cells; format: functional, cell-based, Homo sapiens
Description: SANGER: Inhibition of human D-336MG cell growth in a cell viability assay.

[11] = tested on: HuTu80; assay: cells; format: functional, cell-based, Homo sapiens, HUTU-80;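 note: growth inhibition of HuTu80 human cells, determined with a cell viability readout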
Description: SANGER: Inhibition of human HUTU-80 cell growth in a cell viability assay.

[12] = tested on: ECC4; assay: cells; format: functional, cell-based, Homo sapiens;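 note: growth inhibition of ECC4 cells, read out with a cell viability assay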
Description: SANGER: Inhibition of human ECC4 cell growth in a cell viability assay.

[13] = tested on: NCI-H889; assay: cells; format: functional, cell-based, Homo sapiens;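 note: cell growth inhibition of the cell line, read out with a viability assay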
Description: SANGER: Inhibition of human NCI-H889 cell growth in a cell viability assay.

[14] = tested on: NB1; assay: cells; format: functional, cell-based, Homo sapiens;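 note: reduction of NB1 cell proliferation, read out with a viability assay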
Description: SANGER: Inhibition of human NB1 cell growth in a cell viability assay.

[15] = tested on: Daudi; assay: cells; format: functional, cell-based, Homo sapiens;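 note: growth inhibition of Daudi cells, read out by a viability assay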
Description: SANGER: Inhibition of human Daudi cell growth in a cell viability assay.

[16] = tested on: Kasumi 1; assay: cells; format: functional, cell-based, Homo sapiens;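 note: growth inhibition of human Kasumi-1 cells, read out by a cell viability assay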
Description: SANGER: Inhibition of human KASUMI-1 cell growth in a cell viability assay.

[17] = tested on: BL-70; assay: SANGER: Inhibition of human BL-70 cell growth in a cell viability assay.; format: functional, cell-based
[18] = Homo sapiens, NCI-H2196, read-out: IC50

Measured: IC50

CC(C)C[C@H](NC(=O)[C@H](Cc1ccccc1)NC(=O)c1cnccn1)B(O)O [BORTEZOMIB]
7.2 nM: [6]; Homo sapiens, NCI-H345
7.24 nM: [2]; Homo sapiens, SU-DHL-1
2.38 nM: [8]; Homo sapiens, ARH-77
0.657 nM: [10]; Homo sapiens, D-336MG
3.74 nM: [4]; Homo sapiens, LC-1F
0.533 nM: [11]; Homo sapiens, HuTu80
2.12 nM: [17]; Homo sapiens, BL-70
1.22 nM: [15]; Homo sapiens, Daudi
> 20 nM: [5]; Homo sapiens, CA46 | [7]; Homo sapiens, REH | [9]; Homo sapiens, SUP-T1 | [12]; Homo sapiens, ECC4 | [13]; Homo sapiens, NCI-H889 | [16]; Homo sapiens, Kasumi 1
6.8 nM: [1]; [18]
3.6 nM: [3]; Homo sapiens, EVSA-T
6.88 nM: [14]; Homo sapiens, NB1

C[C@@H](Oc1cc(-c2cnn(C3CCNCC3)c2)cnc1N)c1c(Cl)ccc(F)c1Cl [CRIZOTINIB]
> 2000 nM: [1]; [18] | [3]; Homo sapiens, EVSA-T | [4]; Homo sapiens, LC-1F | [5]; Homo sapiens, CA46 | [6]; Homo sapiens, NCI-H345 | [7]; Homo sapiens, REH | [8]; Homo sapiens, ARH-77 | [9]; Homo sapiens, SUP-T1 | [10]; Homo sapiens, D-336MG | [11]; Homo sapiens, HuTu80 | [12]; Homo sapiens, ECC4 | [13]; Homo sapiens, NCI-H889 | [15]; Homo sapiens, Daudi | [16]; Homo sapiens, Kasumi 1 | [17]; Homo sapiens, BL-70
92 nM: [14]; Homo sapiens, NB1
337 nM: [2]; Homo sapiens, SU-DHL-1

Cc1cc(N2CCOCC2)cc2[nH]c(-c3c(NC[C@@H](O)c4cccc(Cl)c4)cc[nH]c3=O)nc12
4800 nM: [17]; Homo sapiens, BL-70
> 5120 nM: [1]; [18] | [2]; Homo sapiens, SU-DHL-1 | [3]; Homo sapiens, EVSA-T | [4]; Homo sapiens, LC-1F | [5]; Homo sapiens, CA46 | [6]; Homo sapiens, NCI-H345 | [7]; Homo sapiens, REH | [9]; Homo sapiens, SUP-T1 | [12]; Homo sapiens, ECC4 | [13]; Homo sapiens, NCI-H889 | [14]; Homo sapiens, NB1 | [15]; Homo sapiens, Daudi | [16]; Homo sapiens, Kasumi 1
466 nM: [11]; Homo sapiens, HuTu80
872 nM: [10]; Homo sapiens, D-336MG
2800 nM: [8]; Homo sapiens, ARH-77

C=CC(=O)N1CCCC(Nc2nc(Nc3ccc(N(C)C(=O)CC)cc3)nc3[nH]cnc23)C1 (stereo not given)
8000 nM: [10]; Homo sapiens, D-336MG
> 10200 nM: [1]; [18] | [2]; Homo sapiens, SU-DHL-1 | [3]; Homo sapiens, EVSA-T | [4]; Homo sapiens, LC-1F | [5]; Homo sapiens, CA46 | [6]; Homo sapiens, NCI-H345 | [7]; Homo sapiens, REH | [8]; Homo sapiens, ARH-77 | [9]; Homo sapiens, SUP-T1 | [11]; Homo sapiens, HuTu80 | [12]; Homo sapiens, ECC4 | [13]; Homo sapiens, NCI-H889 | [14]; Homo sapiens, NB1 | [15]; Homo sapiens, Daudi | [16]; Homo sapiens, Kasumi 1 | [17]; Homo sapiens, BL-70

NC(=O)c1cccc(-c2cc(Nc3ccc(OC(F)(F)F)cc3)ncn2)c1
> 1280 nM: [1]; [18] | [2]; Homo sapiens, SU-DHL-1 | [3]; Homo sapiens, EVSA-T | [4]; Homo sapiens, LC-1F | [5]; Homo sapiens, CA46 | [6]; Homo sapiens, NCI-H345 | [7]; Homo sapiens, REH | [8]; Homo sapiens, ARH-77 | [9]; Homo sapiens, SUP-T1 | [10]; Homo sapiens, D-336MG | [11]; Homo sapiens, HuTu80 | [12]; Homo sapiens, ECC4 | [13]; Homo sapiens, NCI-H889 | [14]; Homo sapiens, NB1 | [15]; Homo sapiens, Daudi | [16]; Homo sapiens, Kasumi 1 | [17]; Homo sapiens, BL-70

Cc1ccc(NC(=O)c2ccc(CN3CCN(C)CC3)cc2)cc1Nc1nccc(-c2cccnc2)n1 [IMATINIB]
> 2000 nM: [1]; Homo sapiens, NCI-H2196 | [2]; Homo sapiens, SU-DHL-1 | [3]; Homo sapiens, EVSA-T | [4]; Homo sapiens, LC-1F | [5]; Homo sapiens, CA46 | [6]; Homo sapiens, NCI-H345 | [7]; Homo sapiens, REH | [8]; Homo sapiens, ARH-77 | [9]; Homo sapiens, SUP-T1 | [10]; Homo sapiens, D-336MG | [11]; Homo sapiens, HuTu80 | [12]; Homo sapiens, ECC4 | [13]; Homo sapiens, NCI-H889 | [14]; Homo sapiens, NB1 | [15]; Homo sapiens, Daudi | [16]; Homo sapiens, Kasumi 1 | [17]; Homo sapiens, BL-70

Nc1ccccc1NC(=O)c1ccc(CNC(=O)OCc2cccnc2)cc1 [ENTINOSTAT]
1120 nM: [4]; Homo sapiens, LC-1F
777 nM: [15]; Homo sapiens, Daudi
659 nM: [2]; Homo sapiens, SU-DHL-1
857 nM: [17]; Homo sapiens, BL-70
1280 nM: [14]; Homo sapiens, NB1
> 5000 nM: [5]; Homo sapiens, CA46 | [7]; Homo sapiens, REH | [9]; Homo sapiens, SUP-T1 | [10]; Homo sapiens, D-336MG | [13]; Homo sapiens, NCI-H889 | [16]; Homo sapiens, Kasumi 1
3970 nM: [12]; Homo sapiens, ECC4
382 nM: [8]; Homo sapiens, ARH-77
1800 nM: [11]; Homo sapiens, HuTu80
1180 nM: [3]; Homo sapiens, EVSA-T
2330 nM: [6]; Homo sapiens, NCI-H345
4060 nM: [1]; [18]

COc1cc(N2CCC(N3CCN(C)CC3)CC2)ccc1Nc1ncc(Cl)c(Nc2ccccc2S(=O)(=O)C(C)C)n1 [TAE-684]
474 nM: [11]; Homo sapiens, HuTu80
48.6 nM: [2]; Homo sapiens, SU-DHL-1
995 nM: [17]; Homo sapiens, BL-70
> 2000 nM: [1]; [18] | [3]; Homo sapiens, EVSA-T | [4]; Homo sapiens, LC-1F | [5]; Homo sapiens, CA46 | [6]; Homo sapiens, NCI-H345 | [7]; Homo sapiens, REH | [8]; Homo sapiens, ARH-77 | [9]; Homo sapiens, SUP-T1 | [12]; Homo sapiens, ECC4 | [13]; Homo sapiens, NCI-H889 | [16]; Homo sapiens, Kasumi 1
662 nM: [10]; Homo sapiens, D-336MG
1790 nM: [15]; Homo sapiens, Daudi
< 7.81 nM: [14]; Homo sapiens, NB1

COc1ccc(N(C(=O)Oc2c(C)cccc2C)c2ccnc(Nc3ccc(N4CCN(C)CC4)cc3)n2)c(OC)c1
46.8 nM: [10]; Homo sapiens, D-336MG
714 nM: [15]; Homo sapiens, Daudi
< 20 nM: [17]; Homo sapiens, BL-70
175 nM: [11]; Homo sapiens, HuTu80
> 5120 nM: [1]; [18] | [2]; Homo sapiens, SU-DHL-1 | [3]; Homo sapiens, EVSA-T | [4]; Homo sapiens, LC-1F | [5]; Homo sapiens, CA46 | [6]; Homo sapiens, NCI-H345 | [7]; Homo sapiens, REH | [8]; Homo sapiens, ARH-77 | [9]; Homo sapiens, SUP-T1 | [12]; Homo sapiens, ECC4 | [13]; Homo sapiens, NCI-H889 | [14]; Homo sapiens, NB1 | [16]; Homo sapiens, Kasumi 1

CC(C)C[C@@H](C=O)NC(=O)[C@H](CC(C)C)NC(=O)[C@H](CC(C)C)NC(=O)OCc1ccccc1 [MG-132] (Cbz-Leu-Leu-Leu-aldehyde)
> 1000 nM: [1]; [18] | [1]; nci-h2196, read-out: IC50 | [2]; su-dhl-1 | [4]; lc-1f | [5]; Homo sapiens, CA46 | [5]; ca46 | [6]; nci-h345 | [7]; reh | [8]; arh-77 | [9]; Homo sapiens, SUP-T1 | [9]; sup-t1 | [10]; d-336mg | [11]; Homo sapiens, HuTu80 | [11]; hutu-80 | [12]; ecc4 | [13]; nci-h889 | [14]; nb1 | [15]; daudi | [16]; Homo sapiens, Kasumi 1 | [16]; kasumi 1
499 nM and > 1000 nM: [3]; evsa-t
694 nM and > 1000 nM: [17]; bl-70
